Laboratory results published in the NIST ThermoML archive (doi:10.1021/je060093l).
Numbers after ± are expanded uncertainties.

How the values were obtained:
[1] = refractive index (Na D-line) (dimensionless); details: 298.15 K; 101.33 kPa; Liquid; Standard Abbe refractometry
[2] = Liquid, Ebulliometric method (Recirculating still)

Cc1ccccc1C [1,2-dimethylbenzene]
refractive index [1]: 1.5026 ± 0.0004

CCCS [1-propanethiol]
vapor or sublimation pressure ([2]; 310.52 K): 34.6 ± 0.37 kPa | vapor or sublimation pressure ([2]; 315.47 K): 41.96 ± 0.38 kPa | vapor or sublimation pressure ([2]; 320.68 K): 51.03 ± 0.39 kPa | vapor or sublimation pressure ([2]; 325.73 K): 61.23 ± 0.4 kPa | vapor or sublimation pressure ([2]; 330.38 K): 72.02 ± 0.42 kPa | vapor or sublimation pressure ([2]; 334.62 K): 83.15 ± 0.43 kPa | vapor or sublimation pressure ([2]; 337.03 K): 90.03 ± 0.45 kPa | vapor or sublimation pressure ([2]; 340.63 K): 101.19 ± 0.46 kPa | refractive index [1]: 1.4353 ± 0.0004

CCSCC [3-thiapentane]
vapor or sublimation pressure ([2]; 333.82 K): 35.84 ± 0.37 kPa | vapor or sublimation pressure ([2]; 338.63 K): 42.73 ± 0.37 kPa | vapor or sublimation pressure ([2]; 344.7 K): 52.89 ± 0.39 kPa | vapor or sublimation pressure ([2]; 350.02 K): 63.3 ± 0.4 kPa | vapor or sublimation pressure ([2]; 353.56 K): 71.09 ± 0.41 kPa | vapor or sublimation pressure ([2]; 358.41 K): 83.03 ± 0.42 kPa | vapor or sublimation pressure ([2]; 361.02 K): 90.03 ± 0.44 kPa | vapor or sublimation pressure ([2]; 361.03 K): 90.03 ± 0.44 kPa | vapor or sublimation pressure ([2]; 365.05 K): 101.92 ± 0.45 kPa | refractive index [1]: 1.44 ± 0.0004

c1ccsc1 [thiophene]
vapor or sublimation pressure ([2]; 328.01 K): 37.5 ± 0.37 kPa | vapor or sublimation pressure ([2]; 331.52 K): 42.75 ± 0.38 kPa | vapor or sublimation pressure ([2]; 337.52 K): 53.02 ± 0.38 kPa | vapor or sublimation pressure ([2]; 341.13 K): 60.12 ± 0.4 kPa | vapor or sublimation pressure ([2]; 346.44 K): 71.92 ± 0.41 kPa | vapor or sublimation pressure ([2]; 350.46 K): 82.01 ± 0.43 kPa | vapor or sublimation pressure ([2]; 353.38 K): 90.03 ± 0.45 kPa | vapor or sublimation pressure ([2]; 356.73 K): 99.99 ± 0.45 kPa | refractive index [1]: 1.5255 ± 0.0004

Cc1ccccc1 [toluene]
vapor or sublimation pressure ([2]; 352.64 K): 38.32 ± 0.37 kPa | vapor or sublimation pressure ([2]; 356.84 K): 44.23 ± 0.37 kPa | vapor or sublimation pressure ([2]; 361.31 K): 51.31 ± 0.38 kPa | vapor or sublimation pressure ([2]; 367.88 K): 63.37 ± 0.39 kPa | vapor or sublimation pressure ([2]; 372.12 K): 72.27 ± 0.41 kPa | vapor or sublimation pressure ([2]; 375.63 K): 80.42 ± 0.42 kPa | vapor or sublimation pressure ([2]; 379.44 K): 90.03 ± 0.42 kPa | vapor or sublimation pressure ([2]; 379.45 K): 90.03 ± 0.42 kPa | refractive index [1]: 1.4939 ± 0.0004
